Experimental data: ChEMBL document CHEMBL4673393, “Synthesis and Metabolism of BTN3A1 Ligands: Studies on Modifications of the Allylic Alcohol” (ACS Med Chem Lett, 2021)
The source made the active and inactive calls. The rule behind the calls is not given here.

How the values were obtained:
[1] = Prodrug conversion in human K562 cells assessed as conversion of monoacid in allylic aldehyde form at 100 uM measured after 1 hr by LC-MS analysis; format: ADME, cell-based; conditions: k562, 1 h
[2] = Prodrug conversion in human K562 cells assessed as conversion of free acid alcohol at 100 uM measured after 1 hr by LC-MS analysis; format: ADME, cell-based; conditions: k562, 1 h
K562 = test: Toxicity in human K562 cells assessed as reduction in cell viability at 100 uM after 72 hrs by Qb reagent based fluorescence assay; conditions: k562, 72 h
[3] = biological target: Butyrophilin subfamily 3 member A1 (Homo sapiens) (UniProt O00481); test: Binding affinity to BTN3A1 in human PBMC-derived Vgamma9/Vdelta2 T cells assessed as induction of Vgamma9Vdelta2 T cells proliferation incubated for 3 days by gamma delta TCR/PE-CD3+ antibody staining based FACS analysis relative to HMBP analog; conditions: Vgamma9Vdelta2 T cell, time 3.0 day
[4] = Prodrug conversion in human K562 cells assessed as conversion of phosphonic monoacid in allylic aldehyde form at 100 uM measured after 1 hr by LC-MS analysis; format: ADME, cell-based; conditions: k562, 1 h
[5] = biological target: Butyrophilin subfamily 3 member A1 (Homo sapiens) (UniProt O00481); test: Binding affinity to BTN3A1 in human K562 cells assessed as induction of Vgamma9/Vdelta2 T cell-mediated interferon gamma release preincubated for 4 hrs followed by compound washout and subsequent Vgamma9Vdelta2 T cell addition measured after 20 hrs by ELISA; format: cell-based
[6] = Prodrug conversion in human K562 cells assessed as glutathione conjugation at 100 uM measured after 1 hr by LC-MS analysis; format: ADME, cell-based; conditions: k562, 1 h
[7] = Prodrug conversion in human K562 cells assessed as dehydration by measuring DMAP monoacid formation at 100 uM measured after 1 hr by LC-MS analysis; format: ADME, cell-based; conditions: k562, 1 h
[8] = Prodrug conversion in human K562 cells assessed as conversion of phosphonic monoacid in allylic alcohol form at 100 uM measured after 1 hr by LC-MS analysis; format: ADME, cell-based; conditions: k562, 1 h
[9] = Prodrug conversion in human K562 cells assessed as conversion of monoacid in allylic alcohol form at 100 uM measured after 1 hr by LC-MS analysis; format: ADME, cell-based; conditions: k562, 1 h

Chain of Butyrophilin subfamily 3 member A1 (Homo sapiens) (O00481 30-513 limits assumed): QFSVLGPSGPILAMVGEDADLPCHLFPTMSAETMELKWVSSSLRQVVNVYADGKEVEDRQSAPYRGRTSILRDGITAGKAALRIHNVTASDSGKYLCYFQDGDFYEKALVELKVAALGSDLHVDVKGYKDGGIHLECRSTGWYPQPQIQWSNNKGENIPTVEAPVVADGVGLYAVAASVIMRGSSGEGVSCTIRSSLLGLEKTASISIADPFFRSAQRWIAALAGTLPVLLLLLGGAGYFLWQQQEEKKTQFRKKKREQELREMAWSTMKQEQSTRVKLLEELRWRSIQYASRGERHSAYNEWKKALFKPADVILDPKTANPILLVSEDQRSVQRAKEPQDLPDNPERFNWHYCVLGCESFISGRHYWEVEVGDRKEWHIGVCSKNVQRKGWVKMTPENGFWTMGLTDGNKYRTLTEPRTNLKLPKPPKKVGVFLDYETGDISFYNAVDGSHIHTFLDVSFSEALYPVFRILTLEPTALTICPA

For `C/C(C=O)=C\CCP(=O)(OCOC(=O)C(C)(C)C)Oc1ccc2ccccc2c1` (stereo unspecified), the Drug metabolism [1] was “Metabolite_Detected”, the Drug metabolism [2] was “Metabolite_Detected” and the Activity (K562) was “Toxic”. For the same compound, the fold change (FC) [3] was 2, the Drug metabolism [4] was “Metabolite_Detected” and the Activity [5] was “Active”.
In the case of `CCOC(=O)CNP(=O)(CC/C=C(\C)C=O)Oc1ccccc1` (stereo unspecified), the Drug metabolism [1] is reported as “Metabolite_Detected” and the fold change (FC) [3] is reported as 56.
With `C/C(C=O)=C\CCP(=O)(OCOC(=O)C(C)(C)C)Oc1ccc2ccc(=O)oc2c1` (stereo unspecified) the fold change (FC) [3] was 2 and the Activity [5] was “Active”.
`C/C(C=O)=C\CCP(=O)(NCC(=O)OC(C)C)Oc1ccccc1` (stereo unspecified) showed a fold change (FC) [3] of 45.
In the case of `C/C(C=O)=C\CCP(=O)(OCOC(=O)C(C)(C)C)OCOC(=O)C(C)(C)C`, the Drug metabolism [1] is reported as “Metabolite_Detected”, the Drug metabolism [6] is reported as “Metabolite_Detected” and the Drug metabolism [2] is reported as “Metabolite_Detected”. For the same compound, the Activity (K562) was “Toxic”, the fold change (FC) [3] was 9 and the Drug metabolism [4] was “Metabolite_Detected”. For the same compound, the Drug metabolism [7] was “Metabolite_Detected”.
In the case of `COC(=O)CNP(=O)(CC/C=C(\C)C=O)Oc1ccccc1` (stereo unspecified), the Activity (K562) is reported as “Toxic” and the fold change (FC) [3] is reported as 31.
For `C/C(=C\CCP(=O)(OCOC(=O)C(C)(C)C)OCOC(=O)C(C)(C)C)CO`, the Drug metabolism [1] was “Metabolite_Notdetected”, the Drug metabolism [8] was “Metabolite_Detected” and the Drug metabolism [9] was “Metabolite_Detected”. The Drug metabolism [4] was “Metabolite_Notdetected”.
With `CCOC(=O)CNP(=O)(CC/C=C(C)/C=N/O)Oc1ccccc1` (stereo unspecified) the Drug metabolism [1] was “Metabolite_Detected” and the fold change (FC) [3] was over 2100.
